In PubChem BioAssay (NCI):
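48-hour exposure; five concentrations; linearly interpolated endpoints. At the GI50, growth is halved. The concentration for full growth arrest is given as TGI.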

What was measured:
Assay in all cases: growth of human tumour cells (NCI), 48 h
MALME-3M melanoma = system: MALME-3M melanoma
COLO 205 colon = system: COLO 205 colon
786-0 renal = system: 786-0 renal
SK-MEL-28 melanoma = system: SK-MEL-28 melanoma
LOX IMVI melanoma = system: LOX IMVI melanoma
OVCAR-8 ovarian = system: OVCAR-8 ovarian
HT29 colon = system: HT29 colon
SK-MEL-2 melanoma = system: SK-MEL-2 melanoma
NCI-H23 lung = system: NCI-H23 lung
A498 renal = system: A498 renal
KM12 colon = system: KM12 colon
PC-3 prostate = system: PC-3 prostate
SF-268 CNS = system: SF-268 CNS
CCRF-CEM leukemia = system: CCRF-CEM leukemia
SF-295 CNS = system: SF-295 CNS
EKVX NSCLC = system: EKVX NSCLC
HCC-2998 colon = system: HCC-2998 colon
IGROV1 ovarian = system: IGROV1 ovarian
UO-31 renal = system: UO-31 renal
HL-60(TB) leukemia = system: HL-60(TB) leukemia
MOLT-4 leukemia = system: MOLT-4 leukemia
OVCAR-4 ovarian = system: OVCAR-4 ovarian
HS 578T breast = system: HS 578T breast
SW-620 colon = system: SW-620 colon
CAKI-1 renal = system: CAKI-1 renal
T-47D breast = system: T-47D breast
U251 CNS = system: U251 CNS
MDA-MB-435 = system: MDA-MB-435
HOP-92 NSCLC = system: HOP-92 NSCLC
M14 melanoma = system: M14 melanoma
HCT-116 colon = system: HCT-116 colon
UACC-62 melanoma = system: UACC-62 melanoma
HCT-15 colon = system: HCT-15 colon
OVCAR-5 ovarian = system: OVCAR-5 ovarian
NCI-H226 lung = system: NCI-H226 lung
SF-539 CNS = system: SF-539 CNS
HOP-62 NSCLC = system: HOP-62 NSCLC
NCI-H460 lung = system: NCI-H460 lung
ACHN renal = system: ACHN renal
K-562 leukemia = system: K-562 leukemia
UACC-257 melanoma = system: UACC-257 melanoma
DU-145 prostate = system: DU-145 prostate
OVCAR-3 ovarian = system: OVCAR-3 ovarian
TK-10 renal = system: TK-10 renal
RPMI-8226 leukemia = system: RPMI-8226 leukemia
NCI/ADR-RES ovarian = system: NCI/ADR-RES ovarian
BT-549 breast = system: BT-549 breast
MDA-MB-468 breast = system: MDA-MB-468 breast
SK-MEL-5 melanoma = system: SK-MEL-5 melanoma
SN12C renal = system: SN12C renal
NCI-H522 lung = system: NCI-H522 lung
MCF7 breast = system: MCF7 breast
RXF 393 renal = system: RXF 393 renal
SK-OV-3 ovarian = system: SK-OV-3 ovarian
SNB-75 CNS = system: SNB-75 CNS
A549 NSCLC = system: A549 NSCLC
SR leukemia = system: SR leukemia
MDA-MB-231 breast = system: MDA-MB-231 breast
SNB-19 CNS = system: SNB-19 CNS

## CCOP(=O)(CC(F)(F)C(F)(F)F)OCC
MALME-3M melanoma
  GI50: 1.83 µM
  TGI: 3.62 µM
COLO 205 colon
  GI50: 1.84 µM
  TGI: 3.43 µM
786-0 renal
  GI50: 4.2 µM
  TGI: 16.8 µM
SK-MEL-28 melanoma
  GI50: 1.82 µM
  TGI: 3.85 µM
LOX IMVI melanoma
  GI50: 1.78 µM
  TGI: 3.91 µM
OVCAR-8 ovarian
  GI50: 3.79 µM
  TGI: 55.3 µM
HT29 colon
  GI50: 2.25 µM
  TGI: 4.96 µM
SK-MEL-2 melanoma
  GI50: 17.3 µM
  TGI: 39.2 µM
NCI-H23 lung
  GI50: 7.93 µM
  TGI: 23.9 µM
A498 renal
  GI50: 19.7 µM
  TGI: 37 µM
KM12 colon
  GI50: 17.2 µM
  TGI: 33.6 µM
PC-3 prostate
  GI50: 4.6 µM
  TGI: 25.6 µM
SF-268 CNS
  GI50: 17.9 µM
  TGI: 54.4 µM
CCRF-CEM leukemia
  GI50: 2.9 µM
  TGI: 15.8 µM
SF-295 CNS
  GI50: 15.6 µM
  TGI: 33.2 µM
EKVX NSCLC
  GI50: 3.17 µM
  TGI: 12.6 µM
HCC-2998 colon
  GI50: 12.2 µM
  TGI: 25.2 µM
IGROV1 ovarian
  GI50: 18.5 µM
  TGI: 38.8 µM
UO-31 renal
  GI50: 2.82 µM
  TGI: 10.9 µM
HL-60(TB) leukemia
  GI50: 1.71 µM
  TGI: 5.89 µM
MOLT-4 leukemia
  GI50: 1.92 µM
  TGI: 10.3 µM
OVCAR-4 ovarian
  GI50: 8.98 µM
  TGI: 23.9 µM
HS 578T breast
  GI50: 5.55 µM
  TGI: 94 µM
SW-620 colon
  GI50: 1.83 µM
  TGI: 3.92 µM
CAKI-1 renal
  GI50: 3.06 µM
  TGI: 10.6 µM
T-47D breast
  GI50: 2.19 µM
  TGI: 7.23 µM
U251 CNS
  GI50: 20.7 µM
  TGI: 60.2 µM
MDA-MB-435
  GI50: 3.31 µM
  TGI: 14.5 µM
HOP-92 NSCLC
  GI50: 3.37 µM
  TGI: 10.7 µM
M14 melanoma
  GI50: 2.02 µM
  TGI: 5.31 µM
HCT-116 colon
  GI50: 1.86 µM
  TGI: 4.86 µM
UACC-62 melanoma
  GI50: 2.35 µM
  TGI: 8.87 µM
HCT-15 colon
  GI50: 1.56 µM
  TGI: 3.73 µM
OVCAR-5 ovarian
  GI50: 17.6 µM
  TGI: 32.5 µM
NCI-H226 lung
  GI50: 16.5 µM
  TGI: 58.2 µM
SF-539 CNS
  GI50: 2.02 µM
  TGI: 4.75 µM
HOP-62 NSCLC
  GI50: 22.2 µM
  TGI: 54.4 µM
NCI-H460 lung
  GI50: 17 µM
  TGI: 37.5 µM
ACHN renal
  GI50: 1.86 µM
  TGI: 3.55 µM
K-562 leukemia
  GI50: 2.62 µM
  TGI: 17.9 µM
UACC-257 melanoma
  GI50: 2.57 µM
  TGI: 11.1 µM
DU-145 prostate
  GI50: 5.56 µM
  TGI: 18.4 µM
OVCAR-3 ovarian
  GI50: 2.76 µM
  TGI: 7.98 µM
TK-10 renal
  GI50: 3.11 µM
  TGI: 7.27 µM
RPMI-8226 leukemia
  GI50: 3.44 µM
  TGI: 13.1 µM
NCI/ADR-RES ovarian
  GI50: 2.31 µM
  TGI: 5.95 µM
BT-549 breast
  GI50: 4.17 µM
  TGI: 20.5 µM
MDA-MB-468 breast
  GI50: 1.24 µM
  TGI: 2.99 µM
SK-MEL-5 melanoma
  GI50: 3.38 µM
  TGI: 13.7 µM
SN12C renal
  GI50: 16.6 µM
  TGI: 42.2 µM
NCI-H522 lung
  GI50: 0.505 µM
  TGI: 1.86 µM
MCF7 breast
  GI50: 2.45 µM
  TGI: 12.1 µM
RXF 393 renal
  GI50: 1.06 µM
  TGI: 2.37 µM
SK-OV-3 ovarian
  GI50: 27.4 µM
  TGI: 74.8 µM
SNB-75 CNS
  GI50: 1.95 µM
  TGI: 36.7 µM
A549 NSCLC
  GI50: 30.7 µM
  TGI: > 100 µM
SR leukemia
  GI50: 2.4 µM
  TGI: 11.5 µM
MDA-MB-231 breast
  GI50: 3.43 µM
  TGI: 12.3 µM
SNB-19 CNS
  GI50: 26.2 µM
  TGI: > 100 µM

## CN(C)CCNC(=O)OCCCCOc1cc(O)c2c(=O)cc(-c3ccccc3)oc2c1
MALME-3M melanoma
  GI50: 1.57 µM
  TGI: 2.97 µM
COLO 205 colon
  GI50: 1.84 µM
  TGI: 3.5 µM
786-0 renal
  GI50: 2 µM
  TGI: 4.72 µM
SK-MEL-28 melanoma
  GI50: 1.62 µM
  TGI: 3.1 µM
LOX IMVI melanoma
  GI50: 1.79 µM
  TGI: 3.25 µM
OVCAR-8 ovarian
  GI50: 10 µM
  TGI: 24.5 µM
HT29 colon
  GI50: 1.88 µM
  TGI: 3.98 µM
SK-MEL-2 melanoma
  GI50: 2.88 µM
  TGI: 9.08 µM
NCI-H23 lung
  GI50: 7.23 µM
  TGI: 20.4 µM
A498 renal
  GI50: 2.21 µM
  TGI: 5.77 µM
KM12 colon
  GI50: 6.09 µM
  TGI: 20.4 µM
PC-3 prostate
  GI50: 4.35 µM
  TGI: 17.9 µM
SF-268 CNS
  GI50: 3.51 µM
  TGI: 16.2 µM
CCRF-CEM leukemia
  GI50: 3.21 µM
  TGI: 10.7 µM
SF-295 CNS
  GI50: 2.14 µM
  TGI: 4.06 µM
EKVX NSCLC
  GI50: 7.87 µM
  TGI: 20.2 µM
HCC-2998 colon
  GI50: 3.25 µM
  TGI: 10.3 µM
IGROV1 ovarian
  GI50: 15.7 µM
  TGI: 29.6 µM
UO-31 renal
  GI50: 4.56 µM
  TGI: 16.9 µM
HL-60(TB) leukemia
  GI50: 1.64 µM
  TGI: 3.59 µM
MOLT-4 leukemia
  GI50: 2.25 µM
  TGI: 6.24 µM
OVCAR-4 ovarian
  GI50: 10.1 µM
  TGI: 24.7 µM
HS 578T breast
  GI50: 4.35 µM
  TGI: 23.4 µM
SW-620 colon
  GI50: 2.03 µM
  TGI: 4.49 µM
CAKI-1 renal
  GI50: 3.04 µM
  TGI: 12.2 µM
T-47D breast
  GI50: 1.88 µM
  TGI: 4.23 µM
U251 CNS
  GI50: 2.31 µM
  TGI: 6.74 µM
MDA-MB-435
  GI50: 2.12 µM
  TGI: 4.66 µM
HOP-92 NSCLC
  GI50: 4.35 µM
  TGI: 19.1 µM
M14 melanoma
  GI50: 1.89 µM
  TGI: 3.78 µM
HCT-116 colon
  GI50: 2.01 µM
  TGI: 4.85 µM
UACC-62 melanoma
  GI50: 1.78 µM
  TGI: 3.43 µM
HCT-15 colon
  GI50: 2.25 µM
  TGI: 5.8 µM
OVCAR-5 ovarian
  GI50: 11.8 µM
  TGI: 24.2 µM
NCI-H226 lung
  GI50: 10.1 µM
  TGI: 28.8 µM
SF-539 CNS
  GI50: 1.53 µM
  TGI: 2.93 µM
HOP-62 NSCLC
  GI50: 10.4 µM
  TGI: 24.4 µM
NCI-H460 lung
  GI50: 3.01 µM
  TGI: 10.1 µM
ACHN renal
  GI50: 1.92 µM
  TGI: 3.97 µM
K-562 leukemia
  GI50: 1.96 µM
  TGI: 5.98 µM
UACC-257 melanoma
  GI50: 1.89 µM
  TGI: 3.61 µM
DU-145 prostate
  GI50: 3.73 µM
  TGI: 13.9 µM
OVCAR-3 ovarian
  GI50: 4.42 µM
  TGI: 16.3 µM
TK-10 renal
  GI50: 18.5 µM
  TGI: 33.2 µM
RPMI-8226 leukemia
  GI50: 2.97 µM
  TGI: 9.69 µM
NCI/ADR-RES ovarian
  GI50: 7.37 µM
  TGI: 34.2 µM
BT-549 breast
  GI50: 10.6 µM
  TGI: 22.7 µM
MDA-MB-468 breast
  GI50: 1.78 µM
  TGI: 4.16 µM
SK-MEL-5 melanoma
  GI50: 1.65 µM
  TGI: 3.03 µM
SN12C renal
  GI50: 13.8 µM
  TGI: 27.4 µM
NCI-H522 lung
  GI50: 3.68 µM
  TGI: 16 µM
MCF7 breast
  GI50: 1.59 µM
  TGI: 3.76 µM
RXF 393 renal
  GI50: 1.64 µM
  TGI: 3.35 µM
SK-OV-3 ovarian
  GI50: 11.3 µM
  TGI: 23.7 µM
SNB-75 CNS
  GI50: 11 µM
  TGI: 24 µM
A549 NSCLC
  GI50: 5.26 µM
  TGI: 19.3 µM
SR leukemia
  GI50: 1.95 µM
  TGI: 4.16 µM
MDA-MB-231 breast
  GI50: 1.74 µM
  TGI: 3.78 µM
SNB-19 CNS
  GI50: 6.09 µM
  TGI: 20.3 µM
